Results as given in article PMC7037393, “Synthesis, Structural, and Cytotoxic Properties of New Water-Soluble Copper(II) Complexes Based on 2,9-Dimethyl-1,10-Phenanthroline and Their One Derivative Containing 1,3,5-Triaza-7-Phosphaadamantane-7-Oxide” (Molecules, 2020).

Key:
NHDF cells = experiment: Cytotoxicity on normal human dermal fibroblasts, quantitative suspension test according to EN 14476 (DAPI/propidium iodide); assay type: cell-based; conditions: observed 4 days, aqua media
Description: (§1) Normal human dermal fibroblasts (NHDF) (PromoCell, C-12302) were used as normal cells and LoVo (human colorectal adenocarcinoma, ATCC® CCL-229™), A549 (human lung carcinoma, ATCC, No. CCL-185 TM), MCF-7 (human breast adenocarcinoma, ATCC, No. HTB-22^TM) and HeLa (human cervix carcinoma, ATCC, No. CCL-2 TM) were used as cancer cells. They were cultured in DMEM, DMEM–F12 or EMEM (Lonza, CA, USA). Media were supplemented with 10% FBS (Biological Industries, Kibbutz Beit-Haemek, Israel), 2 mM L-glutamine (Biological Industries, Israel), 100 U/mL of penicillin and 100 µg/mL of streptomycin (Sigma, Neustadt an der Weinstrasse, Germany).
(§2) The 100 μL of suspension of NHDF, A549, HeLa, LoVo, and MCF7 cells at a density of 4 × 10^4 cells mL^−1 were incubated in a 96-well polystyrene plate (NUNC, Denmark) for 24 h. Product test solutions were prepared in DMEM, DMEM–F12, or EMEM supplemented with additional 2% FBS and 2 mM L-glutamine. Solutions of the reagents at concentrations from 460 (for 1), 454 (2), […] (3), 1242 (Cu(NO3)2), 1732 (PTA=O), and 1440 µM (dmphen) to 4.60 × 10^−6, 4.54 × 10^−6, 4.69 × 10^−6, 1.24 × 10^−5, 1.73 × 10^−5, and 1.44 × 10^−5 µM, respectively, were prepared and transferred (100 μL) into cell culture units (wells of microtiter plates) containing monolayer of cells. Eight units were inoculated with each dilution. Plates were incubated in 37 °C, 5% CO2 and observed daily for 4 days for the development of cytotoxic effect, using an inverted microscope (Olympus Corp., Hamburg, Germany, Axio Observer, Carl Zeiss MicroImaging GmbH). Then the wells were washed in phosphate buffered saline (PBS) and stained using DAPI (4′,6-diamidino-2-phenylindole) and propidium iodide (Merck, Darmstadt, Germany). The study used the fact that DAPI is able to be combined with cellular DNA, permeate through the membrane of cell, rapidly enter the nucleus of living cells and bind with DNA to form a DAPI-DNA complex. […] In cell culture these are cells that are apoptotic or damaged by any physical or chemical agent. Therefore, if these two fluorochrome are given at the same time, DAPI will get to healthy cells faster, while propidium iodide will stain dead or dying cells. The calculation of the ratio of cells counted on a specific area, allows to determine the potency of a substance in inhibiting a specific biological function (IC50).

[1] = tested on: MCF7 (human breast adenocarcinoma); experiment: Cytotoxicity on MCF7 cells, quantitative suspension test according to EN 14476; assay type: cell-based; conditions: observed 4 days, aqua media
Description: as §1, §2

[2] = Solubility in water at 25 °C, stepwise water addition; assay type: physicochemical; conditions: H2O
Description: The copper complexes 1–3 were air stable in the solid state and at least for several days in H2O solutions. In a general procedure, the complex was dissolved in H2O in air atmosphere. […] Also UV-Vis spectra of water solutions of 1-3 confirm their stability in several days. […] After each addition of an amount of water (100 µL), the mixture was shaken for several minutes and then visually checked for any undissolved parts of the sample.

[3] = Octanol-water partition coefficient (log P), UV-Vis; assay type: physicochemical; conditions: room temperature, 10^−5 M
Description: The log P values consistent to the octanol-water partition coefficient were adjusted to the solubility properties of the compounds [94]. Complexes 1–3 were dissolved in water, previously saturated with octanol with concentrations 10^−5 M. Into a 25-mL flask at room temperature with a magnetic stir bar was introduced initially 5 mL of octanol previously saturated with water and then 5 mL of the complex solutions in water. A two-phase mixture was stirred vigorously for 15 min and samples, which were measured by UV-Vis spectroscopy, were taken from the separated phases.

[4] = tested on: HeLa (human cervix carcinoma); experiment: Cytotoxicity on HeLa cells, quantitative suspension test according to EN 14476; assay type: cell-based; conditions: observed 4 days, aqua media
Description: as §1, §2

[5] = tested on: LoVo (human colorectal adenocarcinoma); experiment: Cytotoxicity on LoVo cells, quantitative suspension test according to EN 14476; assay type: cell-based; conditions: observed 4 days, aqua media
Description: as §1, §2

| Structure (SMILES) | IC50 (NHDF cells) [nM] | IC50 [1] [nM] | solubility in water S25 °C [2] | log P (octanol-water partition coefficient) [3] | IC50 [4] [nM] | IC50 [5] [nM] |
| --- | --- | --- | --- | --- | --- | --- |
| CC#N.Cc1ccc2ccc3ccc(C)nc3c2n1.O=[N+]([O-])[O-].O=[N+]([O-])[O-].[Cu+2] [Complex 3, [Cu(NO3)2(dmphen)]∙MeCN] | 1720 ± 250 | 3450 ± 510 | 2.9 mg mL^−1 and ≈ 2.9 mg mL^−1 | 1.11 | 430 ± 60 | 1720 ± 250 |
| Cc1ccc2ccc3ccc(C)nc3c2n1.F[P-](F)(F)(F)(F)F.O=P12CN3CN(CN(C3)C1)C2.O=[N+]([O-])[O-].[Cu+2] [Complex 1, [Cu(NO3)(PTA=O)(dmphen)][PF6]] | 570 ± 80 | 570 ± 80 | 3.8 mg mL^−1 and ≈ 3.8 mg mL^−1 | 0.90 | 1120 ± 160 | 570 ± 80 |
| Cc1ccc2ccc3ccc(C)nc3c2n1.Cc1ccc2ccc3ccc(C)nc3c2n1.F[P-](F)(F)(F)(F)F.[Cl-].[Cu+2] [Complex 2, [Cu(Cl)(dmphen)2][PF6]] | 230 ± 30 | 570 ± 80 | 2.5 mg mL^−1 and ≈ 2.5 mg mL^−1 | 1.75 | 1130 ± 170 | 1130 ± 170 |
